Legend:
[1] = biological target: Muscarinic acetylcholine receptor M3 (Homo sapiens) (UniProt P20309); experiment: Displacement of [3H]4-DAMP from human recombinant M3 receptor at 10 uM after 60 mins by scintillation counting analysis relative to control
[2] = biological target: 3',5'-cyclic-AMP phosphodiesterase 4D (Homo sapiens) (UniProt Q08499); experiment: Displacement of [3H]cAMP from human recombinant PDE4D2 at 10 uM after 20 mins by scintillation counting analysis relative to control
[3] = biological target: Neuronal acetylcholine receptor; alpha4/beta2 (Homo sapiens) (UniProt P17787+P43681); experiment: Binding affinity to neuronal alpha4beta2 (unknown origin) at 10 uM by antgonist radioligand assay relative to control; type: protein-complex assay
[4] = biological target: Vasopressin V1a receptor (Homo sapiens) (UniProt P37288); experiment: Displacement of [3H]AVP from human recombinant V1a receptor at 10 uM after 60 mins by scintillation counting analysis relative to control
Vasopressin V1a receptor (Homo sapiens), sequence (P37288 whole entry, looked up): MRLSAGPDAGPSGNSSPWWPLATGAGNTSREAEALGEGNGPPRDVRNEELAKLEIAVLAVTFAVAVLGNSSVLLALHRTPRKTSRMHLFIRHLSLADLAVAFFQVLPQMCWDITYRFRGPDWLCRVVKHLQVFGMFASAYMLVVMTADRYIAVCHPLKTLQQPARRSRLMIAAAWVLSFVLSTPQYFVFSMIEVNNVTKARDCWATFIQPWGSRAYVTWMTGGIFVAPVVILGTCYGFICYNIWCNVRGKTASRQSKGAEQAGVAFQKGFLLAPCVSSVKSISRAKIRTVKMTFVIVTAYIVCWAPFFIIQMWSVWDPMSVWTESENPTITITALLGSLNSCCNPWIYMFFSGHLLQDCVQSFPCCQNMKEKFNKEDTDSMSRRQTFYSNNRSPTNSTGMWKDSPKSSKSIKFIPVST

Muscarinic acetylcholine receptor M3 (Homo sapiens), sequence (P20309 whole entry, looked up): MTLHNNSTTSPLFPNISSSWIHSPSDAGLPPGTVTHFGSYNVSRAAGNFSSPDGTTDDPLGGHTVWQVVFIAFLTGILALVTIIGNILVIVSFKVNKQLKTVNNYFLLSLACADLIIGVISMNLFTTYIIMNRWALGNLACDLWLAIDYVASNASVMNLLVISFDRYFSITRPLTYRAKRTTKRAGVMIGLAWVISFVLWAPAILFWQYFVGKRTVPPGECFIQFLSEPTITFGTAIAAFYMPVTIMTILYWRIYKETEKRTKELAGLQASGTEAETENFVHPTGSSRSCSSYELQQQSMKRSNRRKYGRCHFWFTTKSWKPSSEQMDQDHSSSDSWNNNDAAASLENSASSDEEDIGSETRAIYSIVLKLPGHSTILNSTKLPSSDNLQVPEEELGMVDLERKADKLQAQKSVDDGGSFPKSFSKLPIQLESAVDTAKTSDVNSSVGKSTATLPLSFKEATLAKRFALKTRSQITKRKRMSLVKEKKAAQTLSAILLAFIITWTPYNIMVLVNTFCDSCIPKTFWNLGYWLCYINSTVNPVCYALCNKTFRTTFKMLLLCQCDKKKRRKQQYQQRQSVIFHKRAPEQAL
3',5'-cyclic-AMP phosphodiesterase 4D (Homo sapiens), sequence (Q08499 whole entry): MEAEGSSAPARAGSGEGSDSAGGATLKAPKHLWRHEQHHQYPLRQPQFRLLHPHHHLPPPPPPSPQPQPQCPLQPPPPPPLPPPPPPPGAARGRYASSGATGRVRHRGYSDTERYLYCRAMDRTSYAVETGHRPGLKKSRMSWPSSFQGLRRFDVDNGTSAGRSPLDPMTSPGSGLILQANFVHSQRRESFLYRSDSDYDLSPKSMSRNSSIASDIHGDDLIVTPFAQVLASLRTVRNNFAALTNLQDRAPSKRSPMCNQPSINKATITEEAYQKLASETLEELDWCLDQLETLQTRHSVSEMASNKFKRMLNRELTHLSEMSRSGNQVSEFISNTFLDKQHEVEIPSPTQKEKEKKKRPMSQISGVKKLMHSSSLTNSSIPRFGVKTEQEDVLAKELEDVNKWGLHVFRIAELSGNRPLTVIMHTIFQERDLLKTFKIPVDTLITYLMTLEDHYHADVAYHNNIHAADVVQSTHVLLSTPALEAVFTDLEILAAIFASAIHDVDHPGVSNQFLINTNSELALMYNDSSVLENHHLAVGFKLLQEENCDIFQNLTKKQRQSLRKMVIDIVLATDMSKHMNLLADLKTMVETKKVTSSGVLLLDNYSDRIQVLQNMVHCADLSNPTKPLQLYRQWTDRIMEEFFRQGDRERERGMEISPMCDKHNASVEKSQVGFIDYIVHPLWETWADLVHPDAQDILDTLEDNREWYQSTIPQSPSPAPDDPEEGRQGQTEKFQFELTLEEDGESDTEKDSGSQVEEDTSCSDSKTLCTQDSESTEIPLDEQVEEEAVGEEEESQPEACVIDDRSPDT

## Cc1cc(/N=N/c2ccc(S(=O)(=O)NC3CCCC3)cc2)c(N)cc1O
[1]
  Activity: 4.8%
[2]
  Activity: 39.4%
[3]
  Activity: -2.9%
[4]
  Activity: 32.4%

From ChEMBL document CHEMBL4152207, “Discovery of potent and selective BRD4 inhibitors capable of blocking TLR3-induced acute airway inflammation” (Eur J Med Chem, 2018)
